Experimental data taken from ChEMBL document CHEMBL1909514, “Imidazo[2,1-b]thiazole guanylhydrazones as RSK2 inhibitors” (Eur J Med Chem, 2011).
Calls of active or inactive are those of the source. How the calls were made is not given here.

Columns and labels:
[1] = target: Serine/threonine-protein kinase Chk2 (Homo sapiens, UniProt O96017)
Description: Inhibition of CHK2 assessed as inhibition of substrate phosphorylation using fluorescent peptide substrate by microplate reader assay

[2] = target: Ribosomal protein S6 kinase alpha-3 (Homo sapiens, UniProt P51812)
Description: Inhibition of RSK2 assessed as inhibition of substrate phosphorylation using fluorescent peptide substrate by microplate reader assay

[3] = target: T1, Serine/threonine-protein kinase Chk1 (Homo sapiens, UniProt O14757)
T1 sequence (O14757 whole entry): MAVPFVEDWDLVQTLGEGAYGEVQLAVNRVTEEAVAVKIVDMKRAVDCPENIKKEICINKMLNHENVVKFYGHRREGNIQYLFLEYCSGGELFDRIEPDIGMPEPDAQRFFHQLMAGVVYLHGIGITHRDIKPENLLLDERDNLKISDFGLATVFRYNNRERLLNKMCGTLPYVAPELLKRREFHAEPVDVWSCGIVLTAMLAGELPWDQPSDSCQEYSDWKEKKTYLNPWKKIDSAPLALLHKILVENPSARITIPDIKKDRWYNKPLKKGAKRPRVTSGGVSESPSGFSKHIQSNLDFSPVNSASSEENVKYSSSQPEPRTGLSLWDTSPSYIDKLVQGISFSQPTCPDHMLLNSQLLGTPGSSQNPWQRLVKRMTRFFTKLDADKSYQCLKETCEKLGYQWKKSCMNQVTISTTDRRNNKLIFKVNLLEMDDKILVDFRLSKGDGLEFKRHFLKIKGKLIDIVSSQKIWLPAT
Description: Inhibition of CHK1 assessed as inhibition of substrate phosphorylation using fluorescent peptide substrate by microplate reader assay

[4] = target: T2, Aurora kinase A (Homo sapiens) (UniProt O14965); assay: Inhibition of Aurora kinase A assessed as inhibition of substrate phosphorylation using fluorescent peptide substrate up to 100 uM by microplate reader assay
T2 sequence (whole entry): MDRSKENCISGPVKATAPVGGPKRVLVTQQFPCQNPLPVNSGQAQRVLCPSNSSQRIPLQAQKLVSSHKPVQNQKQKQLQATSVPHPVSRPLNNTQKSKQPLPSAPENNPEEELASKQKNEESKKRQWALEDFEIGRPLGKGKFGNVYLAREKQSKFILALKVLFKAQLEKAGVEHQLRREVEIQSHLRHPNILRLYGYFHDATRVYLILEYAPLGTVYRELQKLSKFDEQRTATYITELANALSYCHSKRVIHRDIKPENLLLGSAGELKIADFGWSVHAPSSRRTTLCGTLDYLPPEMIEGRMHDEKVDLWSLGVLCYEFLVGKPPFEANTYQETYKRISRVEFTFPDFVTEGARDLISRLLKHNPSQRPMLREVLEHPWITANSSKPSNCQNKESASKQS

Sequence of Serine/threonine-protein kinase Chk2 (O96017 whole entry): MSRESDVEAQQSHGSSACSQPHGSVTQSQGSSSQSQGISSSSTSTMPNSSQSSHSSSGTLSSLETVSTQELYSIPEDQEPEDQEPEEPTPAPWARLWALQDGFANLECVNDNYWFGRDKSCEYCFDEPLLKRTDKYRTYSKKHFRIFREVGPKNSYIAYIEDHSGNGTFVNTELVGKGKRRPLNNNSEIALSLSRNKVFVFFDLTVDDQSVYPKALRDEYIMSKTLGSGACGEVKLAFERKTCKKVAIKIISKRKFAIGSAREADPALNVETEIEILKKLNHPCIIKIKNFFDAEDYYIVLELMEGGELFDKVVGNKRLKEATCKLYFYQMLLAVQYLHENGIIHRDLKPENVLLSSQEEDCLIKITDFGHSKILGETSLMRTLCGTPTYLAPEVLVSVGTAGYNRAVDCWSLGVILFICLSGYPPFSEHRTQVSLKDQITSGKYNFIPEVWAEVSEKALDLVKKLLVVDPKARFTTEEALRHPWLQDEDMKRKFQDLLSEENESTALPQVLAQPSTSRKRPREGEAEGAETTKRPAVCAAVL
Sequence of Ribosomal protein S6 kinase alpha-3 (P51812 whole entry): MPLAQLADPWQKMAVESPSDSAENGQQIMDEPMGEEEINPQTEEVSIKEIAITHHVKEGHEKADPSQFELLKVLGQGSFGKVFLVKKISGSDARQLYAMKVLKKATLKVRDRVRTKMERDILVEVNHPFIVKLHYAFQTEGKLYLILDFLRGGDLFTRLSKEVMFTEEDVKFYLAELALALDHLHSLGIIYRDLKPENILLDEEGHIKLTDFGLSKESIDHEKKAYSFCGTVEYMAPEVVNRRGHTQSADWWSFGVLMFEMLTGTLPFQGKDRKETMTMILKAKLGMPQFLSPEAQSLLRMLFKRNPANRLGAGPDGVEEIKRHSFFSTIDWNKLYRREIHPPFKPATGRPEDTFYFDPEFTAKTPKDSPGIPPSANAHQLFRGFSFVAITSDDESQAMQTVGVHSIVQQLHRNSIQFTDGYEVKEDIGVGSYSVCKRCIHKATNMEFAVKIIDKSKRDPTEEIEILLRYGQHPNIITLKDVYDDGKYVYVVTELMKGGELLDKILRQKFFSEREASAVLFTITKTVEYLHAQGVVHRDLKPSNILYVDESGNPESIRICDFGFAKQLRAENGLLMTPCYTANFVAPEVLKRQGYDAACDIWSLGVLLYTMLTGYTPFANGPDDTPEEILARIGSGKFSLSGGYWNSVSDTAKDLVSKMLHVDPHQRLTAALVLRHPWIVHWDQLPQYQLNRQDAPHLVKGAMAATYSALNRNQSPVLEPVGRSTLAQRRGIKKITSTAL

Compound	IC50 [1] [µM]	IC50 [2] [µM]	IC50 [3] [µM]	inhibition [4]
Cc1cn2c(/C=N/NC(=N)N)c(-c3ccc(Cl)c([N+](=O)[O-])c3)nc2s1	64.8	3.76	> 100	–
Cc1nn2c(/C=N/NC3=NCCN3)c(-c3ccc(Cl)c([N+](=O)[O-])c3)nc2s1	> 20	> 100	–	inactive
Cc1csc2nc(-c3ccc(Cl)c([N+](=O)[O-])c3)c(/C=N/NC(=N)N)n12	84.4	44.8	> 100	–
CCCc1cn2c(/C=N/NC(=N)N)c(-c3cc([N+](=O)[O-])c(Cl)cc3Cl)nc2s1	> 100	5.97	> 100	–
COc1cc([N+](=O)[O-])c(OC)cc1-c1nc2sc3ccccc3n2c1C=O	–	–	–	inactive
COc1cc([N+](=O)[O-])c(OC)cc1-c1nc2ccccn2c1C=O	–	–	–	inactive
N=C(N)N/N=C\c1c(-c2cccc(C(F)(F)F)c2)nc2sccn12	> 100	> 100	–	inactive
O=Cc1c(-c2ccc(F)cc2)nc2sccn12	–	–	–	inactive
Cc1cn2c(/C=N/NC3=NCCN3)c(-c3ccc(Cl)c([N+](=O)[O-])c3)nc2s1	> 100	20.5	> 100	–
Clc1cc(-c2cn3ccccc3n2)c(Cl)s1	–	–	–	inactive
Cc1cn2c(C=O)c(-c3ccc(F)cc3)nc2s1	–	–	–	inactive
Clc1cc(-c2nc3sc(Cl)cn3c2/C=N/NC2=NCCN2)c(Cl)s1	> 20	> 100	–	inactive
CCCc1cn2c(/C=N/NC(=N)N)c(-c3ccc([N+](=O)[O-])cc3)nc2s1	> 100	20.9	> 100	–
N=C(N)N/N=C/c1c(-c2ccc([N+](=O)[O-])cc2)nc2sccn12	> 100	5.66	> 100	–
COc1cc([N+](=O)[O-])c(OC)cc1-c1cn2ccccc2n1	–	–	–	inactive
Fc1cc(F)c(-c2cn3ccsc3n2)cc1F	–	–	–	inactive
N=C(N)N/N=C/c1c(-c2cccc([N+](=O)[O-])c2)nc2sccn12	> 100	18.5	> 100	–
Cc1csc2nc(-c3cccnc3)c(/C=N/NC(=N)N)n12	34.3	100	> 100	–
Fc1ccc(-c2cn3ccsc3n2)cc1F	–	–	–	inactive
O=Cc1c(-c2c(F)cccc2F)nc2sccn12	–	–	–	inactive
Cc1nn2cc(-c3cc(Cl)sc3Cl)nc2s1	–	–	–	inactive
COc1cc([N+](=O)[O-])c(OC)cc1-c1nc2sccn2c1/C=N/NC(=N)N	96	3.58	> 100	–
O=[N+]([O-])c1ccc(-c2cn3cc(F)sc3n2)cc1	–	–	–	inactive
O=Cc1c(-c2ccc(F)c([N+](=O)[O-])c2)nc2sc(Cl)cn12	–	–	–	inactive
N=C(N)N/N=C/c1c(-c2cc([N+](=O)[O-])c(Cl)cc2Cl)nc2sccn12	> 100	5.93	> 100	–
COc1cc([N+](=O)[O-])c(OC)cc1-c1nc2sc(C)nn2c1C=O	–	–	–	inactive

Compound	IC50 [1] [µM]	IC50 [2] [µM]	IC50 [3] [µM]	inhibition [4]
O=Cc1c(-c2ccccc2F)nc2sccn12	–	–	–	inactive
N=C(N)N/N=C\c1c(-c2c(F)cccc2F)nc2sccn12	> 100	> 100	–	inactive
N#Cc1ccc(-c2nc3sc(Cl)cn3c2C=O)cc1	–	–	–	inactive
CCCc1cn2c(/C=N/NC(=N)N)c(-c3cccc([N+](=O)[O-])c3)nc2s1	69.5	13.2	> 100	–
Cc1nn2c(C=O)c(-c3cc(Cl)sc3Cl)nc2s1	–	–	–	inactive
Cc1cn2c(C=O)c(-c3ccc(F)c([N+](=O)[O-])c3)nc2s1	–	–	–	inactive
N=C(N)N/N=C/c1c(-c2cc(Cl)sc2Cl)nc2sccn12	65	79	> 100	–
N=C(N)N/N=C\c1c(-c2cccc([N+](=O)[O-])c2F)nc2sccn12	> 100	> 100	–	inactive
O=Cc1c(-c2ccc(F)c(F)c2)nc2sccn12	–	–	–	inactive
N=C(N)N/N=C/c1c(-c2ccc(N)cc2)nc2sccn12	67.5	3	> 100	–
Cc1sc2nc(-c3ccc(Cl)c([N+](=O)[O-])c3)c(/C=N/NC(=N)N)n2c1C	48.5	13.9	> 100	–
COc1cc([N+](=O)[O-])c(OC)cc1-c1cn2nc(C)sc2n1	–	–	–	inactive
N=C(N)N/N=C/c1c(-c2cc(Cl)sc2Cl)nc2ccccn12	> 20	> 100	–	inactive
N=C(N)N/N=C\c1c(-c2cc(F)c(F)cc2F)nc2sccn12	> 100	> 100	–	inactive
O=Cc1c(-c2ccc(Br)c([N+](=O)[O-])c2)nc2sccn12	–	–	–	inactive
O=Cc1c(-c2cc(Cl)sc2Cl)nc2ccccn12	–	–	–	inactive
O=Cc1c(-c2cc(Cl)sc2Cl)nc2sc3ccccc3n12	–	–	–	inactive
O=Cc1c(-c2ccc([N+](=O)[O-])cc2)nc2sc(F)cn12	–	–	–	inactive
O=[N+]([O-])c1cc(-c2cn3ccsc3n2)ccc1F	–	–	–	inactive
COc1cc([N+](=O)[O-])c(OC)cc1-c1nc2sc(Cl)cn2c1/C=N/NC(=N)N/N=C/c1c(-c2cc(OC)c([N+](=O)[O-])cc2OC)nc2sc(Cl)cn12	> 100	11.4	> 100	–
N#Cc1ccc(-c2cn3cc(Cl)sc3n2)cc1	–	–	–	inactive
O=[N+]([O-])c1cccc(-c2cn3ccsc3n2)c1F	–	–	–	inactive
O=[N+]([O-])c1ccc(-c2cn3cc(Br)sc3n2)cc1	–	–	–	inactive
COc1cc([N+](=O)[O-])c(OC)cc1-c1nc2sc(C)nn2c1/C=N\NC(=N)N	> 20	> 100	–	inactive
O=[N+]([O-])c1cc(-c2cn3cc(Cl)sc3n2)ccc1F	–	–	–	inactive
Fc1ccc(-c2cn3cc(Cl)sc3n2)cc1	–	–	–	inactive

Compound	IC50 [1] [µM]	IC50 [2] [µM]	IC50 [3] [µM]	inhibition [4]
Fc1ccccc1-c1cn2ccsc2n1	–	–	–	inactive
Cc1nn2c(/C=N/NC(=N)N)c(-c3ccc(Cl)c([N+](=O)[O-])c3)nc2s1	78	94	–	–
O=[N+]([O-])c1cc(-c2cn3ccsc3n2)ccc1Br	–	–	–	inactive
O=Cc1c(-c2cc(Cl)sc2Cl)nc2sc(Cl)cn12	–	–	–	inactive
O=Cc1c(-c2cccc([N+](=O)[O-])c2F)nc2sccn12	–	–	–	inactive
Clc1cc(-c2cn3cc(Cl)sc3n2)c(Cl)s1	–	–	–	inactive
Clc1cc(-c2cn3c(n2)sc2ccccc23)c(Cl)s1	–	–	–	inactive
N=C(N)N/N=C\c1c(-c2ccccc2)nc2sc(N)nn12	–	–	–	inactive
Clc1cc(-c2nc3sc4ccccc4n3c2/C=N/NC2=NCCN2)c(Cl)s1	> 100	> 100	–	inactive
Cc1cn2cc(-c3ccc(F)c([N+](=O)[O-])c3)nc2s1	–	–	–	inactive
N=C(N)N/N=C\c1c(-c2ccccc2F)nc2sccn12	> 100	> 100	–	inactive
Cc1cn2cc(-c3ccc(F)cc3)nc2s1	–	–	–	inactive
Cc1sc2nc(-c3cc([N+](=O)[O-])c(Cl)cc3Cl)c(/C=N/NC(=N)N)n2c1C	> 100	98.5	–	–
O=Cc1c(-c2ccc(F)c([N+](=O)[O-])c2)nc2sccn12	–	–	–	inactive
N=C(N)N/N=C\c1c(-c2ccc(F)c(F)c2)nc2sccn12	> 100	> 100	–	inactive
COc1cc([N+](=O)[O-])c(OC)cc1-c1cn2c(n1)sc1ccccc12	–	–	–	inactive
N=C(N)N/N=C/c1c(-c2ccccc2)nc2sc(Cl)cn12	> 100	> 100	–	inactive
Nc1nn2c(C=O)c(-c3ccccc3)nc2s1	–	–	–	inactive
O=Cc1c(-c2ccc([N+](=O)[O-])cc2)nc2sc(Br)cn12	–	–	–	inactive
Clc1cc(-c2nc3ccccn3c2/C=N/NC2=NCCN2)c(Cl)s1	> 20	> 100	–	inactive
O=Cc1c(-c2cc(F)c(F)cc2F)nc2sccn12	–	–	–	inactive
Cc1nn2c(/C=N/NC(=N)N)c(-c3cc(Cl)sc3Cl)nc2s1	> 20	> 100	–	inactive
O=Cc1c(-c2ccc(F)cc2)nc2sc(Cl)cn12	–	–	–	inactive
Fc1cccc(F)c1-c1cn2ccsc2n1	–	–	–	inactive
